Reference: US20230110128A1, “USE OF ANTIBODY DRUG CONJUGATES COMPRISING TUBULIN DISRUPTING AGENTS TO TREAT SOLID TUMOR” (Seagen Inc., priority 2018, published 2023)

What was measured:
[1] = test system: MCF7 breast cancer cells; assay: Western blot analysis of ER stress response in MCF7 cells; format: cell-based; conditions: FIG. 16A
Method: MCF7 breast cancer cells were treated with 100 nM MMAE for 16 hours and harvested RIPA buffer for western blot analysis.
MCF7 cells were treated with MMAE or an MMAE-containing ADC (SGN-LIV1A) for 16 hours and harvested in […] for western bot analysis. […] Induction of ICD is also characterized by the secretion of ATP and HMGB1. Extracellular ATP serves as a strong chemotactic signal, promoting immune cell migration to the tumor site. Upon arrival, extracellular HMGB1 signals through various pro-inflammatory receptors (TLR2, TLR4, RAGE) to activate antigen-presenting cells, thereby promoting immune activity within the tumor.

[2] = test system: MCF7 cells; assay: ATP secretion from MCF7 cells; format: cell-based; conditions: after 48 hours of treatment
[3] = test system: MiaPaca-CHOP-luciferase cells; assay: CHOP-driven luciferase reporter assay of severe ER stress; format: cell-based; conditions: after 16 hours
Method: Severe ER stress leads to upregulation of CHOP, and initiates mitochondrial apoptosis. MiaPaca2 pancreatic tumor cells were engineered to express a CHOP-driven luciferase reporter system (purchased from Signosis, Inc.) that allows for quantifiable monitoring of severe ER stress. MiaPaca-CHOP-luciferase cells were treated with MMAE, vincristine, and Paclitaxel, and assayed for luciferase expression after 16 hours.

[4] = test system: MiaPaca-CHOP-luciferase cells subcutaneously engrafted; assay: Tumoral CHOP luciferase signal in engrafted MiaPaca-CHOP-luciferase tumors; format: in vivo, NOD/SCID/gamma-chain deficient mice; conditions: intratumorally; MMAE 0.36 mg/kg, vincristine 1.0 mg/kg, Paclitaxel 10 mg/kg
Method: MiaPaca-CHOP-luciferase cells were subcutaneously engrafted into NOD/SCID/gamma-chain deficient mice. Subcutaneous tumors were treated intratumorally with MMAE (0.36 mg/kg), vincristine (1.0 mg/kg), and Paclitaxel (10 mg/kg) and tumoral luciferase signal was monitored over time.

[5] = test system: MiaPaca2 cells; assay: ATP secretion from MiaPaca2 cells; format: cell-based; conditions: supernatant after 16 hours
Method: MiaPaca2 cells were treated with MMAE, Vincristine, or Paclitaxel. Supernatant was collected after 16 hours of treatment, and analyzed for ATP secretion.

[6] = test system: PC-3 prostate tumor cells; assay: ATP secretion from PC-3 cells; format: cell-based; conditions: supernatant after 16 hours
Method: PC-3 prostate tumor cells were also treated with MMAE, Vincristine, or Paclitaxel. Supernatant was collected after 16 hours of treatment, and analyzed for ATP secretion. […] PC-3 cells were treated for 24 hours with an MMAE-containing ADC (SGN-LIV1A) or MMAE and harvested in RIPA buffer for western blot analysis (FIG. 3C).

[7] = test system: HeLa cervical cancer cells; assay: Western blot analysis of ER stress in HeLa cells; format: cell-based; conditions: 1000 nM or 100 nM, 16 hours
Method: HeLa cervical cancer cells were treated with 1000 nM or 100 nM MMAE, Vincristine, or Paclitaxel for 16 hours and harvested for western blot analysis.

[8] = test system: A2058, SK-MEL-5, SK-MEL-28 (skin) cell lines; assay: ATP secretion in skin cell lines; format: cell-based; conditions: A2058, SK-MEL-5, SK-MEL-28, after 17 hours
Method: (§1) Skin tumor lines A2058, SK-MEL-5 and SK-MEL-28, Calu-1 (lung), HT-1080 (fibrosarcoma), SK-MES-1 (lung), and BXPC3 (pancreas) cells were treated with MMAE, vincristine, and Paclitaxel. Supernatant was collected after 17 hours of treatment, and analyzed for ATP secretion.

[9] = test system: A2058, SK-MEL-5, SK-MEL-28, Calu-1, HT-1080, SK-MES-1, BXPC3 and HPAFII cells; assay: HMGB1 release by ELISA in a panel of solid tumor cell lines; format: cell-based; conditions: supernatant after one night of treatment
Method: A2058, SK-MEL-5, SK-MEL-28 (skin), Calu-1, HT-1080, SK-MES-1 (lung), and BXPC3 and HPAFII (pancreas) cells were treated with an MMAE-containing ADC (e.g., anti-p97-MMAE or anti-CD71-MMAE) or Paclitaxel. Supernatant was collected after one night of treatment, and analyzed for HMGB1 release by ELISA. […] See, e.g., FIG. 70 and additional description below.

[10] = test system: BxPC3 and HPAFII (pancreas) cells co-cultured with macrophages; assay: Macrophage antigen presentation after co-culture with treated pancreas tumor cells; format: cell-based; conditions: BxPC3 and HPAFII treated 24 hours; macrophages harvested 4 days after co-culture
Method: Macrophages were enriched from PBMCs from 2 healthy donors by adhering PBMCs to cell culture-grade plastic. Non-adherent cells were removed 24 hours later, leaving a population of cells enriched for macrophages.
BxPC3 and HPAFII (pancreas) cells were treated with MMAE, vincristine, and Paclitaxel for 24 hours. Cells were washed and harvested, and subsequently co-cultured with the enriched macrophages prepared above. Macrophages were harvested 4 days after co-culture and assayed for immune activation by flow cytometry. Level of antigen-presentation (as measured by frequency of MHCII-expressing cells) was quantified and normalized to macrophages that were co-cultured with untreated tumor cells.

[11] = test system: BxPC-3 cells; assay: ATP secretion from BxPC-3 cells; format: cell-based; conditions: 17 hours
[12] = test system: Hep3b, Huh7, and JHH7 cells; assay: ATP secretion from liver tumor lines; format: cell-based; conditions: Huh7, JHH7, 24 hours
Method: (§2) Liver tumor lines Hep3b, Huh7, and JHH7 cells were treated with MMAE, Tubulysin M, vincristine, and Paclitaxel for 24 hours and analyzed for ATP secretion. […] Cells were washed and harvested, and subsequently co-cultured with enriched macrophages prepared as above. Macrophages were harvested 4 days after co-culture and assayed for immune activation by flow cytometry. Levels of costimulation (as measured by CD86 expression, JHH7) and antigen-presentation (as measured by frequency of MHCII-expressing cells, Hep3b, Huh7, and JHH7) were quantified and normalized to macrophages that were co-cultured with […]. […] Supernatant from the co-culture of macrophages and dying liver tumor cells was harvested 24 hours later and assayed for levels of cytokine and chemokine production by ELISA and normalized to macrophages that were co-cultured with untreated tumor cells.

[13] = test system: Hep3b, Huh7, and JHH7 cells co-cultured with macrophages; assay: Cytokine and chemokine production in macrophage co-culture with treated liver tumor cells; format: cell-based; conditions: Huh7, JHH7 co-culture supernatant 24 hours, ELISA, normalized to untreated
Method: as §2

[14] = test system: A2058, SK-MEL-5, SK-MEL-28, Calu-1, HT-1080, SK-MES-1 and BXPC3 cells; assay: ATP secretion in a panel of solid tumor cell lines; format: cell-based; conditions: 7 cell lines, supernatant after 17 hours
Method: as §1

[15] = test system: MDA-MB-468 cells; assay: ATP secretion from MDA-MB-468 cells; format: cell-based; conditions: supernatant after 48 hours
Method: MDA-MB-468 cells were treated with MMAE or an MMAE-containing ADC (ASG-22ME). Supernatant was collected after 48 hours of treatment, and analyzed for ATP secretion.

[16] = test system: T-24 (bladder) cells; assay: ATP secretion from T-24 cells; format: cell-based; conditions: 48 hours
Method: (§3) T-24 (bladder) cells were treated with MMAE or an MMAE-containing ADC (ASG-22ME) for 48 hours and analyzed for ATP secretion. […] T-24 cells were also treated with MMAE, an MMAE-containing ADC (ASG22ME, Enfortumab vedotin), vincristine, and Paclitaxel for 24 hours. Cells were washed and harvested, and subsequently co-cultured with the enriched macrophages as above. Macrophages were harvested 4 days after co-culture and assayed for immune activation by flow cytometry. Level of antigen-presentation (as measured by frequency of MHCII-expressing macrophages) was quantified and normalized to macrophages that were co-cultured with untreated tumor cells. […] Supernatant from the co-culture of macrophages and dying T-24 tumor cells was harvested after 24 hours and assayed for levels of cytokine and chemokine production by ELISA and normalized to macrophages that were co-cultured with untreated tumor cells.

[17] = test system: T-24 cells co-cultured with macrophages; assay: Macrophage antigen presentation after co-culture with treated T-24 cells; format: cell-based; conditions: T-24 treated 24 hours; macrophages harvested 4 days after co-culture
Method: as §3

[18] = test system: T-24 tumor cells co-cultured with macrophages; assay: Cytokine and chemokine production in macrophage co-culture with treated T-24 cells; format: cell-based; conditions: T-24 co-culture supernatant after 24 hours, ELISA, normalized to untreated
Method: as §3

Molecule | Severe ER stress (phosphorylation of IRE1 and JNK) [1] | ATP secretion [2] | Luciferase signal as a proxy of severe ER stress induction [3] | Severe ER stress in engrafted tumors (tumoral luciferase signal over time) [4] | ATP secretion [6] | ER stress responses (phosphorylation of IRE1) [7] | Antigen-presentation (frequency of MHCII-expressing cells) [10] | ATP secretion [11] | also measured
CC(=O)O[C@@]12CO[C@@H]1C[C@H](O)[C@@]1(C)C(=O)[C@H](O)C3=C(C)[C@@H](OC(=O)[C@H](O)[C@@H](NC(=O)OC(C)(C)C)c4ccccc4)C[C@@](O)([C@@H](OC(=O)c4ccccc4)[C@H]21)C3(C)C [Docetaxel, docetaxel, reference compound] | do not elicit JNK phosphorylation | neither Paclitaxel nor Docetaxel elicited ATP secretion | – | – | – | – | – | – | –
CC(=O)O[C@H]1C(=O)[C@@]2(C)[C@H]([C@H](OC(=O)c3ccccc3)[C@]3(O)C[C@H](OC(=O)[C@H](O)[C@@H](NC(=O)c4ccccc4)c4ccccc4)C(C)=C1C3(C)C)[C@]1(OC(C)=O)CO[C@@H]1C[C@@H]2O [Paclitaxel, paclitaxel] | do not elicit JNK phosphorylation | neither Paclitaxel nor Docetaxel elicited ATP secretion | modest luciferase signal at the peak doses | does not induce ER stress | modest ATP secretion | activated ER stress responses | did not lead to changes in macrophage antigen-presentation | equivalent levels of ATP secretion | ATP secretion [5]: modest ATP secretion; Severe ER stress response (phosphorylation of JNK) [7]: Robust JNK phosphorylation was not seen with lower doses; ATP secretion (skin cell lines responding) [8]: ATP secretion from only 1 of 3 cell lines; HMGB1 release (cell lines responding) [9]: HMGB1 release in most of the cell lines assayed (5/7)
CC[C@H](C)[C@H](NC(=O)[C@H]1CCCCN1C)C(=O)N(C)[C@H](C[C@@H](OC(C)=O)c1nc(C(=O)N[C@@H](Cc2ccccc2)C[C@H](C)C(=O)O)cs1)C(C)C [Tubulysin M, tubulysin M, reference compound] | – | – | – | – | – | – | – | – | ATP secretion (cell lines responding) [12]: potent ATP secretion from 3 of 3 cell lines evaluated; Cytokine and chemokine production [13]: increase of the indicated cytokines and chemokines that was more robust than treatment with Paclitaxel
C=C1C[C@@H]2CC[C@@]34C[C@H]5O[C@H]6[C@@H](O3)[C@H]3O[C@H](CC[C@@H]3O[C@H]6[C@H]5O4)CC(=O)C[C@@H]3[C@@H](OC)[C@@H](C[C@H](O)CN)O[C@H]3C[C@H]3O[C@@H](CC[C@@H]1O2)C[C@@H](C)C3=C [eribulin, reference compound] | elicits severe ER stress (phosphorylation of IRE1 and JNK) | Increased AIR secretion | – | – | – | – | – | – | –
CC[C@]1(O)C[C@H]2CN(CCc3c([nH]c4ccccc34)[C@@](C(=O)OC)(c3cc4c(cc3OC)N(C=O)[C@H]3[C@@](O)(C(=O)OC)[C@H](OC(C)=O)[C@]5(CC)C=CCN6CC[C@]43[C@@H]65)C2)C1 [vincristine] | – | – | dose-dependent increase in luciferase signal | rapidly elicited severe ER stress | robust ATP secretion | activated ER stress responses | increase in antigen-presentation in 1/2 tumor cell lines | equivalent levels of ATP secretion | ATP secretion (cell lines responding) [14]: ATP secretion in most of the cell lines assayed (6/7); ATP secretion response compared with Paclitaxel [14]: more robust response than Paclitaxel in all cell lines assayed
ASG-22ME | – | – | – | – | – | – | – | – | ATP secretion [15]: robust ATP secretion that was comparable to thapsigargin; ATP secretion [16]: potent ATP secretion; Macrophage antigen presentation (frequency of MHCII-expressing macrophages) [17]: increase in macrophage antigen presentation that was more robust than treatment with Paclitaxel; Cytokine and chemokine production [18]: increase of the indicated cytokines and chemokines that was more robust than treatment with Paclitaxel
